Assay results published in patent US20230416205A1, “COMPOUNDS, COMPOSITIONS, AND METHODS” (Denali Therapeutics Inc, priority 2020, published 2023).
Read-outs that look alike come from different tables or passages of the source.

Tested on: NLRP3
Assay: IL-1β secretion assay in PMA-differentiated, LPS/nigericin-stimulated THP-1 cells (384-well, ELISA read-out)
Type: cell-based, human
How it was run: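 THP-1 cells differentiated with PMA (5 ng/mL, 40 h), primed in serum-free medium with 25 ng/mL LPS for 2 h, treated with compounds 1 h (0.5% DMSO), then stimulated with nigericin for 2 h at 37 °C. Supernatant IL-1β measured by ELISA; responses normalized to LPS+5 μM nigericin and LPS-only controls.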

[1] = Table 4, IL-1β secretion, LPS/nigericin-stimulated THP-1 cells, read-out: IC50
[2] = Homo sapiens, THP-1, IL-1β secretion, PMA-differentiated THP-1 cells, LPS then nigericin stimulation, ELISA read at 450 nm, read-out: Activity
[3] = Homo sapiens, THP-1, Table 4, IL-1β secretion, LPS/nigericin-stimulated THP-1 cells, read-out: IC50

| SMILES | IC50 [1] [µM] | IC50 [2] [µM] | IC50 [3] [µM] |
| --- | --- | --- | --- |
| O=C(CN1CC2(CC2(F)F)c2c(ccc(Br)c2F)C1=O)Nc1ncc(C(F)(F)F)cn1 (single isomer, unassigned) [Example 323, 2-[6-bromo-1′,1′,5-trifluoro-1-oxospiro[3H-isoquinoline-4,2′-cyclopropane]-2-yl]-N-[5-(trifluoromethyl)pyrimidin-2-yl]acetamide] | > 10 | – | – |
| O=C(CN1CC2(CC2(F)F)c2c(ccc(Br)c2F)C1=O)Nc1ncc(C(F)(F)F)cn1 (single isomer, unassigned) [Example 324, 2-[6-bromo-1′,1′,5-trifluoro-1-oxospiro[3H-isoquinoline-4,2′-cyclopropane]-2-yl]-N-[5-(trifluoromethyl)pyrimidin-2-yl]acetamide] | 0.027 | – | – |
| CC1(O)CC(NC(=O)CN2CC3(CC3(F)F)c3c(ccc(Br)c3F)C2=O)C1 (single isomer, unassigned) [Example 325, N-(3-cis-hydroxy-3-methylcyclobutyl)-2-[6-bromo-1′,1′,5-trifluoro-1-oxospiro[3H-isoquinoline-4,2′-cyclopropane]-2-yl]acetamide] | > 1 | – | – |
| CC1(O)CC(NC(=O)CN2CC3(CC3(F)F)c3c(ccc(Br)c3F)C2=O)C1 (single isomer, unassigned) [Example 326, N-(3-cis-hydroxy-3-methylcyclobutyl)-2-[6-bromo-1′,1′,5-trifluoro-1-oxospiro[3H-isoquinoline-4,2′-cyclopropane]-2-yl]acetamide] | 0.013 | – | – |
| CC1(O)CC(NC(=O)CN2C[C@@]3(C[C@@H]3F)c3cc(C(F)(F)F)ccc3C2=O)C1 (single isomer, unassigned) [Example 327, N-(3-cis-hydroxy-3-methylcyclobutyl)-2-[(2′s,4r)-2′-fluoro-1-oxo-6-(trifluoromethyl)spiro[3H-isoquinoline-4,1′-cyclopropane]-2-yl]acetamide] | > 1 | – | – |
| CC1(O)CC(NC(=O)CN2C[C@@]3(C[C@@H]3F)c3cc(C(F)(F)F)ccc3C2=O)C1 (single isomer, unassigned) [Example 328, N-(3-cis-hydroxy-3-methylcyclobutyl)-2-[(2′s,4r)-2′-fluoro-1-oxo-6-(trifluoromethyl)spiro[3H-isoquinoline-4,1′-cyclopropane]-2-yl]acetamide] | 0.067 | – | – |
| O=C(CN1CC2(CC2)c2cc(Br)ccc2C1=O)N[C@@H]1C[C@H]2CC[C@@H]1O2 (stereo in doubt) [Example 17, 2-(6-bromo-1-oxospiro[3H-isoquinoline-4,1′-cyclopropane]-2-yl)-N-[(1S,2R,4R)-7-oxabicyclo[2.2.1]heptan-2-yl]acetamide] | – | < 10 | 4.19 |
| CCC1CN(CC(=O)Nc2ncncc2F)C(=O)c2ccc(Br)cc21 (centres unmarked) [Example 1, 2-(6-bromo-4-ethyl-1-oxo-3,4-dihydroisoquinolin-2(1H)-yl)-N-(5-fluoropyrimidin-4-yl)acetamide] | – | < 10 | 1.38 |
| N#Cc1cnc(NC(=O)CN2CC3(CC3)c3cc(Br)ccc3C2=O)nc1 [Example 3] | – | < 10 | 0.047 |
| O=C(CN1CC2(CC2)c2cc(Br)ccc2C1=O)Nc1ncc(Cl)cn1 [Example 4] | – | < 10 | 0.039 |
| O=C(CN1CC2(CC2)c2cc(Br)ccc2C1=O)Nc1ncccn1 [Example 5] | – | < 10 | 0.216 |
| O=C(CN1CC2(CC2)c2cc(Br)ccc2C1=O)Nc1ncncc1F [Example 6] | – | < 10 | 0.141 |
| N#Cc1cnc(NC(=O)CN2CC3(CC3)c3cc(Br)ccc3C2=O)c(F)c1 [Example 7] | – | < 10 | 0.35 |
| O=C(CN1CC2(CC2)c2cc(Br)ccc2C1=O)Nc1ncc(Cl)cc1F [Example 8] | – | < 10 | 0.216 |
| O=C(CN1CC2(CC2)c2cc(Br)ccc2C1=O)Nc1ncc(C(F)(F)F)cc1F [Example 9] | – | < 10 | 0.4 |
| O=C(CN1CC2(CC2)c2cc(Br)ccc2C1=O)Nc1ccc(Cl)nn1 [Example 10] | – | < 10 | 1.3 |
| O=C(CN1CC2(CC2)c2cc(Br)ccc2C1=O)Nc1ccncc1F [Example 11] | – | < 10 | 0.531 |
| O=C(CN1CC2(CC2)c2cc(Br)ccc2C1=O)Nc1ncc(F)cc1F [Example 12] | – | < 10 | 0.588 |
| O=C(CN1CC2(CC2)c2cc(Br)ccc2C1=O)NC12CC(C(F)(F)F)(C1)C2 [Example 13, 2-(6-bromo-1-oxospiro[3H-isoquinoline-4,1′-cyclopropane]-2-yl)-N-[3-(trifluoromethyl)-1-bicyclo[1.1.1]pentanyl]acetamide] | – | < 10 | 1.75 |

| SMILES | IC50 [1] [µM] | IC50 [2] [µM] | IC50 [3] [µM] |
| --- | --- | --- | --- |
| N#CC12CC(NC(=O)CN3CC4(CC4)c4cc(Br)ccc4C3=O)(C1)C2 [Example 14, 2-(6-bromo-1-oxospiro[3H-isoquinoline-4,1′-cyclopropane]-2-yl)-N-(3-cyano-1-bicyclo[1.1.1]pentanyl)acetamide] | – | < 10 | 3.12 |
| O=C(CN1CC2(CC2)c2cc(Br)ccc2C1=O)NC1CCC(F)(F)CC1 [Example 15, 2-(6-bromo-1-oxospiro[3H-isoquinoline-4,1′-cyclopropane]-2-yl)-N-(4,4-difluorocyclohexyl)acetamide] | – | < 10 | 3.19 |
| O=C(CN1CC2(CC2)c2cc(Br)ccc2C1=O)N[C@@H]1C[C@@H]2CC[C@H]1O2 [Example 16, 2-(6-bromo-1-oxospiro[3H-isoquinoline-4,1′-cyclopropane]-2-yl)-N-[(1R,2R,4S)-7-oxabicyclo[2.2.1]heptan-2-yl]acetamide] | – | < 10 | 9.83 |
| CCN1CCCC(NC(=O)CN2CC3(CC3)c3cc(Br)ccc3C2=O)C1 (centres unmarked) [Example 18, 2-(6-bromo-1-oxospiro[3H-isoquinoline-4,1′-cyclopropane]-2-yl)-N-(1-ethylpiperidin-3-yl)acetamide] | – | < 10 | 1.45 |
| C[C@]1(O)C[C@@H](NC(=O)CN2CC3(CC3)c3cc(Br)ccc3C2=O)C1 [Example 19, 2-(6-bromo-1-oxospiro[3H-isoquinoline-4,1′-cyclopropane]-2-yl)-N-(cis-3-hydroxy-3-methylcyclobutyl)acetamide] | – | < 10 | 0.153 |
| O=C(CN1CC2(CC2)c2cc(Br)ccc2C1=O)NC1CCn2nccc2C1 (centres unmarked) [Example 20] | – | < 10 | 3.19 |
| CN1CC(NC(=O)CN2CC3(CC3)c3cc(Br)ccc3C2=O)CCC1=O (centres unmarked) [Example 21, 2-(6-bromo-1-oxo-spiro[3H-isoquinoline-4,1′-cyclopropane]-2-yl)-N-(1-methyl-6-oxo-3-piperidyl)acetamide] | – | < 10 | 6.1 |
| CN1CCC(NC(=O)CN2CC3(CC3)c3cc(Br)ccc3C2=O)CC1=O (centres unmarked) [Example 22, 2-(6-bromo-1-oxo-spiro[3H-isoquinoline-4,1′-cyclopropane]-2-yl)-N-(1-methyl-2-oxo-4-piperidyl)acetamide] | – | 10 to 15 | 10.9 |
| O=C(CN1CC2(CC2)c2cc(Br)ccc2C1=O)NC1CC2(CC2)C1 [Example 23, 2-(6-bromo-1-oxo-spiro[3H-isoquinoline-4,1′-cyclopropane]-2-yl)-N-spiro[2.3]hexan-5-yl-acetamide] | – | < 10 | 1.88 |
| O=C(CN1CC2(CC2)c2cc(Br)ccc2C1=O)NC1CCOC(C2CC2)C1 (centres unmarked) [Example 24, 2-(6-bromo-1-oxo-spiro[3H-isoquinoline-4,1′-cyclopropane]-2-yl)-N-(2-cyclopropyltetrahydropyran-4-yl)acetamide] | – | < 10 | 7.17 |
| COCCN1CCCC(NC(=O)CN2CC3(CC3)c3cc(Br)ccc3C2=O)C1 (centres unmarked) [Example 25, 2-(6-bromo-1-oxo-spiro[3H-isoquinoline-4,1′-cyclopropane]-2-yl)-N-[1-(2-methoxyethyl)-3-piperidyl]acetamide] | – | < 10 | 3.57 |
| CC1(C)CN(CC(=O)N[C@@H]2CCCN(C3CCC3)C2)C(=O)c2ccc(Br)cc21 [Example 26, (R)-2-(6-bromo-4,4-dimethyl-1-oxo-3,4-dihydroisoquinolin-2(1H)-yl)-N-(1-cyclobutylpiperidin-3-yl)acetamide] | – | < 10 | 0.445 |
| O=C(CN1CC2(CC2)c2cc(C(F)(F)F)ccc2C1=O)Nc1ncccn1 [Example 27, 2-[1-oxo-6-(trifluoromethyl)spiro[3H-isoquinoline-4,1′-cyclopropane]-2-yl]-N-pyrimidin-2-yl-acetamide] | – | < 10 | 0.291 |
| O=C(CN1CC2(CC2)c2cc(C(F)(F)F)ccc2C1=O)Nc1ncc(F)cn1 [Example 28] | – | < 10 | 0.373 |
| CC1CC12CN(CC(=O)Nc1ncccn1)C(=O)c1ccc(C(F)(F)F)cc12 (centres unmarked) [Example 29, 2-[2′-methyl-1-oxo-6-(trifluoromethyl)spiro[3H-isoquinoline-4,1′-cyclopropane]-2-yl]-N-pyrimidin-2-yl-acetamide] | – | < 10 | 0.392 |
| CCC1(C)CN(CC(=O)Nc2ncccn2)C(=O)c2ccc(C(F)(F)F)cc21 (centres unmarked) [Example 30, 2-[4-ethyl-4-methyl-1-oxo-6-(trifluoromethyl)-3H-isoquinolin-2-yl]-N-pyrimidin-2-ylacetamide] | – | > 15 | 15.1 |
| O=C(CN1CC2(CC2)c2nc(C(F)(F)F)ccc2C1=O)Nc1ncccn1 [Example 31, 2-[5-oxo-2-(trifluoromethyl)spiro[7H-1,6-naphthyridine-8,1′-cyclopropane]-6-yl]-N-pyrimidin-2-ylacetamide] | – | < 10 | 2.41 |
| O=C(CN1CC2(CCC2)c2cc(Br)ccc2C1=O)Nc1ncccn1 [Example 32, 2-(6-bromo-1-oxo-spiro[3H-isoquinoline-4,1′-cyclobutane]-2-yl)-N-pyrimidin-2-yl-acetamide] | – | < 10 | 1.95 |
